The values that follow come from patent US10517835B2, “Composition and methods of treatment” (Blueberry Therapeutics Limited, priority 2015, dated 2019).

Data set [1] deals with Trychophyton mentagrophytes. As to the kind of experiment: Paper disk zone of clearance assay on YEPD agar. The format is cell-based. Conditions: 4 days 30° C. Here is the method: The antifungal activity of a range of concentrations of terbinafine, encompassing the concentrations range passing through the nails in the Franz cells, was tested. Terbinafine was diluted to the following concentrations in double distilled water: 60, 6, 0.6 and 0.06 μg/ml. 40 μl of each terbinafine solution and double distilled water alone was spotted onto a 10 mm sterile 3 MM paper disk. Each disk was placed on a lawn of Trychophyton mentagrophytes plated on yeast extract peptone dextrose (YEPD) agar plates. T. mentagrophytes was used as a laboratory fungal strain due to its relevance to key pathogenic species in onychomycosis (fungal nail infection). The agar plates were inverted and incubated at 30° C. for 4 days. The plates were photographed and analysed for zones of clearance, which indicate antifungal activity.

Data set [2] in a line: Nanoparticle formation, number and size on Malvern Instruments Nanosight LM10. It counts as physicochemical. Conditions: 0.1 mg/ml terbinafine in 30% ethanol, with or without 0.3 mg/ml PHMB, room temperature at least 24 hours; for particle number: hydrochloride. Here is the method:
Terbinafine was mixed at 0.1 mg/ml in 30% ethanol and incubated at room temperature for at least 24 hours up to a maximum of 47 days. Another formulation was prepared by mixing terbinafine at 0.1 mg/ml in 30% ethanol and then adding PHMB to 0.3 mg/ml. The formulation was incubated at room temperature for at least 24 hours up to a maximum of 112 days. The number and size of any nanoparticles formed were measured using a Malvern Instruments Nanosight LM10.

“Also recorded” adds a separate entry of the source. Counter-ions that a name gives are not always drawn.

Regarding `CN(C/C=C/C#CC(C)(C)C)Cc1cccc2ccccc12` [terbinafine, terbinafine hydrochloride], the zone of clearance result was “no zone of clearance” in data set [1] (40 μl of 0.06 μg/ml solution on 10 mm disk); “clear zones of clearance; also recorded: Progressively smaller zones of clearance” in data set [1] (40 μl of 0.6 μg/ml solution on 10 mm disk, hydrochloride); “clear zones of clearance; also recorded: Progressively smaller zones of clearance” in data set [1] (40 μl of 6 μg/ml solution on 10 mm disk, hydrochloride); “clear zones of clearance; also recorded: largest zone of clearance” in data set [1] (40 μl of 60 μg/ml solution on 10 mm disk, hydrochloride). Moreover, the particle size range in data set [2] is reported as 50-800 nm. The values for the particle number in data set [2] and in data set [2] (listed as terbinafine alone) were 0.5×10^8 particles/ml and “Approximately 0.5×10^8 particles/ml”, respectively.
